The results in this text go back to ChEMBL document CHEMBL1201862, “PubChem BioAssay data set” (2004).

Each structure is given as a SMILES string.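 In this assay, cells in 96-well plates receive the compound at five concentrations for 48 hours. Endpoints are linearly interpolated between the surrounding concentrations. Abbreviation: GI50, concentration required for 50% inhibition of growth.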 Active and inactive are the calls of the source. No stated cut-off is given here; in the data, active = GI50 up to about 1.1 µM and inactive = higher.

Among the test systems are MOLT-4; PC-3; SF-268; LOX IMVI; HOP-92; 786-0; EKVX; KM12; BT-549; HCT-15; Hs-578T; SK-MEL-5; UACC-62; NCI-H226; OVCAR-3; Malme-3M; UO-31; RXF 393; NCI-H460; SR.
Holding throughout (assay): NCI-60 cell line screen, 48 h

In the case of `COC(=O)[C@H](Cc1c[nH]c2ccccc12)NP(=O)(O)OCC1C=CC(n2cc(C)c(=O)[nH]c2=O)O1` (stereo not given in full), the GI50 in the test with MOLT-4, with PC-3, with SF-268, in the test on LOX IMVI, in the test with HOP-92 and in the test on 786-0 was > 100 µM (inactive) in each case. In addition, the GI50 in the test on EKVX was > 100 µM (inactive); in the test on KM12 it was > 100 µM (inactive); in the test on BT-549, > 100 µM (inactive); in the test with HCT-15, above 100 µM; in the test with Hs-578T, > 100 µM (inactive); in the test on SK-MEL-5, > 100 µM (inactive). Further, the GI50 in the test with UACC-62, in the test on NCI-H226 and in the test with OVCAR-3 was > 100 µM (inactive) throughout.
In the case of `Cc1cccc2sc(NC(=O)NS(=O)(=O)n3cnc4ccccc43)nc12`, the GI50 in the test on MOLT-4 is 26.5 µM (inactive); with Malme-3M it was 25.2 µM (inactive); in the test with PC-3 it was 28.6 µM (inactive); in the test with SF-268 it was 28.5 µM (inactive); in the test on HOP-92, 15.3 µM (inactive); with 786-0 it was 33.8 µM (inactive). The GI50 in the test on EKVX was 1.67 µM (inactive); with KM12 it was 30.4 µM (inactive); in the test on BT-549 it was 23.3 µM (inactive); in the test with UO-31, 22.2 µM (inactive); in the test with RXF 393, 15.9 µM (inactive); with HCT-15, 25.9 µM. Further, the GI50 was 13.8 µM (inactive) with Hs-578T; 21.7 µM (inactive) in the test on SK-MEL-5; 18.3 µM (inactive) in the test on UACC-62; 59 µM (inactive) in the test with NCI-H226; 22.3 µM (inactive) in the test on OVCAR-3; 29.9 µM (inactive) with NCI-H460.
Turning to `CCCCCCCCCCCCCCCC(=O)Nc1ccn(C2CC(OP(=O)(O)OCC3OC(n4cc(F)c(=O)[nH]c4=O)CC3OC(C)=O)C(CO)O2)c(=O)n1` (stereo not given), the GI50 in the test with MOLT-4 is 7.55 µM (inactive); in the test on PC-3, 7.87 µM (inactive); in the test with SF-268, 0.528 µM (active); in the test with SR, 1 µM (active); in the test on LOX IMVI, 1.29 µM (inactive); with 786-0 it was 6.47 µM (inactive). Further, the GI50 is > 61.2 µM (inactive) in the test with EKVX; 15 µM (inactive) with KM12; 3.18 µM (inactive) in the test with BT-549; 0.565 µM (active) in the test with UO-31; > 41 µM (inactive) in the test with RXF 393; 14.7 µM in the test with HCT-15. In addition, the GI50 is 12.1 µM (inactive) in the test on Hs-578T; 11.5 µM (inactive) in the test on SK-MEL-5; 8.32 µM (inactive) in the test with UACC-62; 31.2 µM (inactive) with NCI-H226; > 53.2 µM (inactive) in the test on OVCAR-3; 0.0664 µM (active) in the test with NCI-H460.
Take `CC(=O)O[C@H]1C[C@@H](OC(C)=O)[C@@](C)(O)[C@@H]2[C@@H](OC(C)=O)[C@@]3(O)[C@H](/C=C(/CO)[C@H]4O[C@H]4[C@@H](OC(C)=O)[C@@]12C)OC(=O)[C@@H]3C`: the GI50 in the test on MOLT-4 is 16.4 µM (inactive); in the test with Malme-3M it was 7.78 µM (inactive); in the test on PC-3, 6.04 µM (inactive); with SF-268 it was 19.1 µM (inactive); with LOX IMVI, 8.71 µM (inactive); with HOP-92 it was 17.5 µM (inactive). For the same compound, the GI50 in the test with 786-0 is 7.64 µM (inactive); in the test on EKVX, > 25 µM (inactive); in the test on KM12 it was 13.5 µM (inactive); with BT-549, > 25 µM (inactive); in the test with UO-31, 22.5 µM (inactive); in the test with RXF 393 it was 2.08 µM (inactive). The GI50 in the test with HCT-15 was 9.1 µM; in the test on Hs-578T, 8.43 µM (inactive); in the test on SK-MEL-5, 9.25 µM (inactive); in the test with UACC-62, 7.64 µM (inactive); in the test with NCI-H226, 9.73 µM (inactive); in the test on OVCAR-3, 5.51 µM (inactive). In the test on NCI-H460, the GI50 was 8.13 µM (inactive).
Consider `CN1N=C(c2ccccc2)C(C(c2ccccc2[N+](=O)[O-])C2C(=O)N(C)N=C2c2ccccc2)C1=O` (stereo not given), for which the GI50 in the test on MOLT-4 is 37.6 µM (inactive); in the test with Malme-3M, > 100 µM (inactive); in the test with PC-3, 67.5 µM (inactive); in the test with SF-268, 97.7 µM (inactive); in the test with LOX IMVI, 26.9 µM (inactive); in the test with HOP-92, > 80.9 µM (inactive). The GI50 in the test on 786-0 is > 70 µM (inactive); with EKVX, > 100 µM (inactive); with KM12, > 75 µM (inactive); in the test with BT-549, 63.4 µM (inactive); in the test with UO-31, > 100 µM (inactive); in the test with RXF 393, 52 µM (inactive). Besides, the GI50 in the test with HCT-15 is 42.6 µM; with Hs-578T it was > 73.1 µM (inactive); with SK-MEL-5, > 100 µM (inactive); with UACC-62, 61.2 µM (inactive); with NCI-H226 it was > 51.1 µM (inactive); in the test on OVCAR-3, 44.6 µM (inactive). In addition, the GI50 in the test on NCI-H460 is > 100 µM (inactive).
For the compound `CC(=O)/C=C1\Nc2sc(C)c(C)c2C(=O)S1`, the GI50 in the test with MOLT-4 is 10 µM (inactive); with Malme-3M, 30.6 µM (inactive); in the test on PC-3 it was 25.4 µM (inactive); in the test with SF-268, 28.8 µM (inactive); in the test with LOX IMVI, 44.6 µM (inactive); with HOP-92, > 100 µM (inactive). The GI50 in the test with 786-0 is 62.8 µM (inactive); in the test on EKVX it was 24.9 µM (inactive); in the test on KM12 it was 29.2 µM (inactive); with BT-549 it was 53 µM (inactive); in the test on UO-31, 54 µM (inactive); in the test on RXF 393, > 100 µM (inactive). Moreover, the GI50 was 28.9 µM in the test on HCT-15; 20.5 µM (inactive) with Hs-578T; 41 µM (inactive) in the test with SK-MEL-5; 65.8 µM (inactive) with UACC-62; 29.2 µM (inactive) in the test with NCI-H226; 44.1 µM (inactive) with OVCAR-3. Further, the GI50 in the test with NCI-H460 was 10 µM (inactive).
As to `Clc1cc2c(cc1Cl)CC(NCCN1CCCC1)CC2` (stereo not given), the GI50 was 20.5 µM (inactive) in the test on MOLT-4; 10.8 µM (inactive) in the test on Malme-3M; 15.1 µM (inactive) in the test with PC-3; 15.3 µM (inactive) with SF-268; 10.6 µM (inactive) with SR; 13.3 µM (inactive) with LOX IMVI. Moreover, the GI50 with 786-0 was 13.2 µM (inactive); in the test with EKVX, 18.7 µM (inactive); with KM12, 15.2 µM (inactive); in the test on BT-549, 15 µM (inactive); in the test with UO-31, 11.1 µM (inactive); with HCT-15, 12.9 µM. In addition, the GI50 in the test with Hs-578T was 21.2 µM (inactive); in the test on SK-MEL-5, 3.74 µM (inactive); in the test on UACC-62, 2.87 µM (inactive); in the test on NCI-H226 it was 15.2 µM (inactive); with OVCAR-3, 17.1 µM (inactive); in the test with NCI-H460, 16.4 µM (inactive).
On to `COCC([C@@H](O)C(O)C(=O)NCC[C@@H](C)c1nc(/C=C/CC2OC3(C[C@H](O)C2C)OC(C(C[C@H](O)C(C)[C@H](O)C(C)/C=C(C)/C(C)=C/C=C/C(C)=C/C#N)OC)[C@@H](OP(=O)(O)O)C3(C)C)co1)N(C)C` (stereo not given in full), for which the GI50 in the test on MOLT-4 is 0.00082 µM (active); in the test with Malme-3M it was 0.000174 µM (active); with PC-3, 0.000179 µM (active); with SF-268, 0.000192 µM (active); in the test with LOX IMVI it was 0.000245 µM (active); in the test on HOP-92, 0.000175 µM (active). In addition, the GI50 is 0.000176 µM (active) in the test on 786-0; 0.000172 µM (active) in the test on EKVX; 0.000184 µM (active) in the test on KM12; 0.000167 µM (active) with BT-549; 0.00118 µM (active) in the test on UO-31; 0.000202 µM in the test with HCT-15. Also, the GI50 is 0.000196 µM (active) with Hs-578T; 0.000159 µM (active) in the test with SK-MEL-5; 0.000195 µM (active) in the test on UACC-62; 0.00015 µM (active) in the test with NCI-H226; 0.000186 µM (active) in the test on OVCAR-3; 0.000139 µM (active) in the test on NCI-H460.
As to `COc1ccccc1/C=C/c1cnccn1`, the GI50 in the test on MOLT-4, in the test on Malme-3M, in the test with PC-3, in the test with SF-268, in the test with LOX IMVI and in the test with HOP-92 was > 10 µM (inactive) in each case. Further, the GI50 with 786-0, in the test on EKVX, in the test with KM12, in the test with BT-549, in the test with UO-31 and with RXF 393 was > 10 µM (inactive) each time. In addition, the GI50 in the test on HCT-15 was above 10 µM; in the test with Hs-578T, > 10 µM (inactive); in the test with SK-MEL-5, > 10 µM (inactive); with UACC-62 it was > 10 µM (inactive); in the test on NCI-H226 it was > 10 µM (inactive); in the test with OVCAR-3 it was > 10 µM (inactive). The GI50 with NCI-H460 was > 10 µM (inactive).
Regarding `O=C(COc1ccc(Cl)cc1Cl)N/N=C/C=C/c1ccc([N+](=O)[O-])o1`, the GI50 was 2.28 µM (inactive) in the test with MOLT-4; 2.8 µM (inactive) with Malme-3M; 12.6 µM (inactive) with PC-3; 29.4 µM (inactive) in the test on SF-268; 3.27 µM (inactive) in the test on LOX IMVI; 12.3 µM (inactive) in the test on 786-0. Moreover, the GI50 with EKVX is 17.5 µM (inactive); in the test with KM12, 4.86 µM (inactive); with BT-549 it was 12.1 µM (inactive); with UO-31, 5.05 µM (inactive); in the test with RXF 393 it was 6.07 µM (inactive); with HCT-15, 3.37 µM. The GI50 is 1.87 µM (inactive) in the test on Hs-578T; 1.96 µM (inactive) in the test on SK-MEL-5; 3.82 µM (inactive) with UACC-62; 10.5 µM (inactive) with NCI-H226; 4.59 µM (inactive) with OVCAR-3; 8.39 µM (inactive) in the test on NCI-H460.
With `CC1=C(/C=C/C(C)=C/C=C/C(C)=C/C(=O)Nc2ccc(O)cc2)C(C)(C)CCC1` [FENRETINIDE], the GI50 was 1.11 µM (active) in the test on MOLT-4; 4.94 µM (inactive) in the test with Malme-3M; 3.13 µM (inactive) in the test on PC-3; 3.52 µM (inactive) with SF-268; 1.74 µM (inactive) with LOX IMVI; 2.97 µM (inactive) in the test on HOP-92. The GI50 was 2.58 µM (inactive) with 786-0; 9.25 µM (inactive) in the test on EKVX; 3.92 µM (inactive) in the test on KM12; 6.52 µM (inactive) in the test with BT-549; 3.26 µM (inactive) with UO-31; 2.04 µM (inactive) with RXF 393. Moreover, the GI50 in the test on HCT-15 is 5.92 µM; in the test on Hs-578T it was 3.33 µM (inactive); in the test on SK-MEL-5 it was 4.15 µM (inactive); with UACC-62, 2.12 µM (inactive); in the test with NCI-H226, 5.13 µM (inactive); in the test on OVCAR-3 it was 2.55 µM (inactive). Moreover, the GI50 in the test on NCI-H460 was 4.63 µM (inactive).
